This is an account of results in patent EP4230701A1, “4-STYRYL COUMARINS DERIVATIVES AS FLUORESCENT LABELS FOR BIOMOLECULES” (Universidade de Évora, priority 2022, dated 2023).

The structures appear in SMILES notation. Several values for one entry are separate records, joined by “and”; a condition that tells them apart may be missing. Equal entries are not always repeated. Where two headings read alike, the source gives them in different places.

Format in all cases: physicochemical
Data set [1] is described as follows: UV-Vis absorption spectra in acetonitrile. Particulars: for λabs: Absorption maxima in acetonitrile. The procedure:
(§1) All starting materials and reagents were analytical grade, purchased from Aldrich and used without further purification. The organic solvents were dried over appropriate drying agents and distilled prior to use. UV-Vis absorption spectra were recorded on the Thermo Electron Spectrophotometer Corporation, model Nicolet Evolution 300, using acetonitrile (CH3CN) as solvent. Fluorescence spectra were recorded on a PerkinElmer Model LS 55 spectrophotometer. FTMS-ESI mass spectra were obtained on an Thermo Scientific Q Exactive Orbitrap Mass Spectrometer. Nuclear magnetic resonance (NMR) spectra were recorded at 400 MHz for ^1H NMR and at 100 MHz for ^13C NMR, on a Brucker Advance III spectrometer. For NMR spectra, deuterated chloroform (CDCl3) was used as solvent. The chemical shift (π) in ppm; coupling constants (J); relative intensity is indicated by the number of protons (H); multiplicities are indicated by singlet (s), doublet (d), double-doublet (dd), triplet (t), quadruple (q) and multiplet (m); coupling constants are given in Hertz (Hz).
as §1, with “400MHz” for “400 MHz”, “100MHz” for “at 100 MHz”, “^13C,” for “^13C NMR,”, “(CDCl3) or deuterated methanol (CD3OD)” for “(CDCl3)”, “(δ)” for “(π)”

Data set [2] in a line: Fluorescence emission spectra in acetonitrile. Particulars: Emission maxima in acetonitrile. As for the experimental part:
as §1
as §1, with “400MHz” for “400 MHz”, “100MHz” for “at 100 MHz”, “^13C,” for “^13C NMR,”, “(CDCl3) or deuterated methanol (CD3OD)” for “(CDCl3)”, “(δ)” for “(π)”

Data set [3] in a line: Fluorescence quantum yield in ethanol against 7-diethylamino-4-methylcoumarin as standard.
Where [4] appears, read: Molar extinction coefficient at longest wavelength transition.
Setting [5] is: Molar extinction coefficient at longest wavelength transition (Table 5).
Where [6] appears, read: Fluorescence quantum yield in ethanol, standard 7-diethylamino-4-methylcoumarin (ΦF = 0.73 in ethanol).

For `CCN(CC)c1ccc2c(C)cc(=O)oc2c1` [Compound 1, 7-diethylamino-4-methylcoumarin, reference compound], the λabs in data set [1] is reported as 371 nm. In addition, the ε in data set [1] (setting [4]) was found to be 22910 cm^-1M^-1; in data set [1] (setting [5]) it was 22910 cm^-1m^-1. The λem in data set [2] was 434 nm. The compound also yielded a ΦF in data set [3] (setting [6]) of 0.73.

`CCN(CC)c1ccc2c(c1)OC(=C(C#N)C#N)C=C2C` [Compound 3, 2-(7-(diethylamino)-4-methyl-2H-chromen-2-ylidene)malononitrile] showed a λabs in data set [1] of 477 nm. In addition, the ε in data set [1] (setting [4]) is on record as 38000 cm^-1M^-1. Also, the bathochromic shift result in data set [1] (compared with its precursor (2)) is “more than 100 nm”. The compound also gave a λem in data set [2] of 519 nm. Further, the ΦF in data set [3] (setting [6]) is recorded as 0.05.

In turn, `CCN(CC)c1ccc2c(c1)OC(=C(C#N)C#N)C=C2/C=C/c1ccc(C(=O)OC)cc1` [Compound 4] displayed a λabs in data set [1] of 520 nm. In data set [1] (setting [4]), the ε came to 19000 cm^-1M^-1. In addition, the λem in data set [2] stood at 620 nm. Moreover, the ΦF in data set [3] (setting [6]) was 0.04 and 0.08.

In turn, `CCN(CC)c1ccc2c(c1)OC(=C(C#N)C#N)C=C2/C=C/c1ccccc1` [Compound 5] returned a λabs in data set [1] of 516 nm. The same compound registered a ε in data set [1] (setting [4]) of 17000 cm^-1M^-1. This compound also had a λem in data set [2] of 603 nm. The same compound came in with a ΦF in data set [3] (setting [6]) of 0.16.

In data set [1], `CCN(CC)c1ccc2c(c1)OC(=C(C#N)C#N)C=C2/C=C/c1ccc(N(C)C)cc1` [Compound 6, (E)-2-(7-(diethylamino)-4-(4-(dimethylamine)styryl)-2H-chromen-2ylidene)malononitrile] gave a λabs of 496 nm. The ε in data set [1] (setting [4]) was 34000 cm^-1M^-1. In addition, in data set [1] (experimental absorption spectrum), the “visible shoulder (lowest energy S0 → S1 transition)” value is “around 536 nm”. The λem in data set [2] is 597 nm. Also, the ΦF in data set [3] was 0.95 and 0.98.

In turn, `CCN(CC)c1ccc2c(c1)OC(=C(C#N)C#N)C=C2/C=C/c1ccc(OC)cc1` [Compound 7, (E)-2-(7-(diethylamino)-4-(4-methoxystyryl)-2H-chromen-2-ylidene)malononitrile] gave a λabs in data set [1] of 522 nm. In data set [1] (setting [4]), this compound registered a ε of 24000 cm^-1M^-1. Besides, in data set [2], the λem amounted to 602 nm. The ΦF in data set [3] (setting [6]) worked out at 0.20.

For `CCN(CC)c1ccc2c(c1)OC(=C(C#N)C#N)C=C2/C=C/c1ccc(OCCCCCC(=O)O)cc1` [Compound 8, (E)-6-(4-(2-(2-(dicyanomethylene)-7-(diethylamino)-2H-chromen-4yl)vinyl)phenoxy)hexanoic acid], the λabs in data set [1] is given as 519 nm. Moreover, the ε in data set [1] (setting [4]) is recorded as 24000 cm^-1M^-1. In addition, the λem in data set [2] was determined as 596 nm. Also, the ΦF in data set [3] (setting [6]) was 0.28.

For the compound `CCN(CC)c1ccc2c(c1)OC(=C(C#N)C#N)C=C2/C=C/c1ccc(OCCCCCC(=O)ON2C(=O)CCC2=O)cc1` [Compound 9, (E)-2,5-dioxopyrrolidin-1-yl 6-(4-(2-(2-(dicyanomethylene)-7-(diethylamino)-2Hchromen-4-yl)vinyl)phenoxy)hexanoate], the λabs in data set [1] is 523 nm. The compound also registered a ε in data set [1] (setting [4]) of 24000 cm^-1M^-1. The compound also yielded a λem in data set [2] of 597 nm. In data set [3] (setting [6]), the ΦF amounted to 0.29.

`CCN(CC)c1ccc2c(C)cc(=[N+]3CCCCC3)oc2c1.O=[N+]([O-])[O-]` [Compound 10, 1-(7-(diethylamino)-4-methyl-2H-chromen-2-ylidene)-piperidin-1-ium nitrate] yielded a λabs in data set [1] of 437 nm. The ε in data set [1] (setting [5]) came out at 21000 cm^-1m^-1. Further, the bathochromic shift in data set [1] (compared with its precursor (1)) is reported as more than 66 nm. Moreover, the λem in data set [2] worked out at 490 nm. Moreover, the ΦF in data set [3] (setting [6]) was 0.14.

On to `CCN(CC)c1ccc2c(/C=C/c3ccc(C(=O)OC)cc3)cc(=[N+]3CCCCC3)oc2c1.O=[N+]([O-])[O-]` [Compound 11, (E)-1-(7-(diethylamino)-4-(4-(methoxycarbonyl)styryl)-2H-chromen-2ylidene)piperidin-1-ium nitrate], for which the λabs in data set [1] amounted to 484 nm. Further, the ε in data set [1] (setting [4]) is given as 18000 cm^-1M^-1; in data set [1] (setting [5]), 18000 cm^-1m^-1. Further, in data set [2], the λem turned out to be 609 nm. For the same compound, the ΦF in data set [3] (setting [6]) is listed as 0.08.

In the case of `CCN(CC)c1ccc2c(/C=C/c3ccccc3)cc(=[N+]3CCCCC3)oc2c1.O=[N+]([O-])[O-]` [Compound 12, (E)-1-(7-(diethylamino)-4-styryl-2H-chromen-2-ylidene)-piperidin-1-ium nitrate], the λabs in data set [1] was 467 nm. In data set [1] (setting [5]), this compound returned a ε of 17000 cm^-1m^-1. The compound also showed a λem in data set [2] of 525 nm. The compound also gave a ΦF in data set [3] (setting [6]) of 0.34.

`CCN(CC)c1ccc2c(/C=C/c3ccc(N(C)C)cc3)cc(=[N+]3CCCCC3)oc2c1.O=[N+]([O-])[O-]` [Compound 13, (E)-1-(7-(diethylamino)-4-(4-(dimethylamino)styryl)-2H-chromen-2ylidene)piperidin-1-ium nitrate] had a λabs in data set [1] of 485 nm. For the same compound, the figures for the ε in data set [1] (setting [4]) and in data set [1] (setting [5]) were 39000 cm^-1M^-1 and 39000 cm^-1m^-1, respectively. For the same compound, in data set [2], the λem is given as 608 nm.

In data set [1], `CCN(CC)c1ccc2c(/C=C/c3ccc(OC)cc3)cc(=[N+]3CCCCC3)oc2c1.O=[N+]([O-])[O-]` [Compound 14, (E)-1-(7-(diethylamino)-4-(4-methoxystyryl)-2H-chromen-2-ylidene)piperidin-1-ium nitrate] registered a λabs of 410 nm. In data set [1] (setting [5]), this compound displayed a ε of 30000 cm^-1m^-1. The λem in data set [2] is given as 578 nm.

Turning to `CCN(CC)c1ccc2c(/C=C/c3ccc(OCCCCCC(=O)O)cc3)cc(=[N+]3CCCCC3)oc2c1.O=[N+]([O-])[O-]` [Compound 15, (E)-1-(4-(4-((5-carboxypentyl)oxy)styryl)-7-(diethylamino)-2H-chromen-2ylidene)piperidin-1-ium nitrate], the λabs in data set [1] is reported as 406 nm. This compound returned a ε in data set [1] (setting [5]) of 30000 cm^-1m^-1. This compound also yielded a λem in data set [2] of 578 nm. Besides, the ΦF in data set [3] (setting [6]) was found to be 0.90.

`CCN(CC)c1ccc2c(/C=C/c3ccc(OCCCCCC(=O)ON4C(=O)CCC4=O)cc3)cc(=[N+]3CCCCC3)oc2c1.O=[N+]([O-])[O-]` [Compound 16, (E)-1-(7-(diethylamino)-4-(4-((6-((2,5-dioxopyrrolidin-1-yl)oxy)-6oxohexyl)oxy)styryl)-2H-chromen-2-ylidene)piperidin-1-ium nitrate] displayed a λabs in data set [1] of 404 nm. Besides, the ε in data set [1] (setting [5]) turned out to be 30000 cm^-1m^-1. Besides, in data set [2], the λem stood at 577 nm. This compound also returned a ΦF in data set [3] (setting [6]) of 0.92.
